Assay results as given in US20130072466A1, “COMPOSITION CONTAINING PLACENTA EXTRACTS” (Industry-Academic Cooperation Foundation, Yeungnam …, priority 2010, published 2013).

Key:
[1] = system: reproductive cycle; test: Reproductive cycle change assay by vaginal smearing; type: in vivo, CD-1 mice; conditions: subcutaneous injection for 14 days, FIG. 9
Description: (§1) The placenta 1 extract prepared according to the example was dissolved with 100% ethanol as a primary solvent, and sesame oil for body injection was added thereto to obtain a 1 g/ml concentration, and the resultant product was diluted into 0.1% concentration. Herein, 100% was defined as a case in which the extract was diluted with sesame oil by a factor of 100. The diluted extract was subcutaneously injected for 14 days to 6-8 week-old CD-1 mice which had been raised under physiological conditions (6 mice per each group).
To identify effects of the placenta extract on a reproductive cycle, a reproductive cycle was assayed by vaginal smearing during the administration of the placenta extract.

[2] = system: CD34 hematopoietic stem cells; test: CD34-marked numerical change assay of hematopoietic stem cells using FACS; type: in vivo, CD-1 mouse; conditions: 0.1% placenta extract, subcutaneous, 14 days, FIG. 10
Description: as §1
Whether the placenta extract promotes proliferation of hematopoietic stem cells was identified with CD34 that is a marking factor. CD-1 mouse treated with 0.1% placenta extract was sacrificed to collect a thighbone, and then, a bone marrow was extracted therefrom by using PBS solution. Thereafter, the bone marrow was reacted with CD34 specific antibody, and then, CD34 hematopoietic stem cells were counted by using a fluorescent activated cell sorter.

[3] = system: red blood cells; test: Numerical change assay of red blood cells in peripheral blood; type: in vivo, CD-1 mice; conditions: 0.1% placenta extract, subcutaneous, 14 days; compared to the control; FIG. 11
Description: as §1
The cells were treated with 0.1% placenta extract under the same conditions as described above, and then, peripheral blood was collected, and then, 1 mg/ml of EDTA was added thereto to prevent blood coagulation. Then, the number of red blood cells was counted by using an analyzer.

C[C@]12CC[C@H]3[C@@H](CCC4=CC(=O)CC[C@@H]43)[C@@H]1CC[C@@H]2O [nandrolone]
reproductive cycle periodicity [1]: a reproductive cycle gradually became non-periodic | number of CD34 hematopoietic stem cells in bone marrow [2]: the number of hematopoietic stem cells significantly increased | number of red blood cells in peripheral blood [3]: the number of red blood cells significantly increased
